Assay results: ChEMBL document CHEMBL5505992, “Novel membrane-targeting isoxanthohumol-amine conjugates for combating methicillin-resistant Staphylococcus aureus (MRSA) infections” (Eur J Med Chem, 2024)
Values after ≈ are worked out from the molar mass of the structure shown. Active and inactive are the calls of the source. The rule behind the calls is not given here.

Experiments:
Staphylococcus aureus [1] = experiment: Antibacterial activity against Staphylococcus aureus ATCC 29213 measured after 16 to 18 hrs by CLSI method; type: functional; conditions: time 16-18 hrs
Staphylococcus aureus [2] = experiment: Antibacterial activity against methicillin-resistant Staphylococcus aureus clinical isolate MRSA-11 measured after 16 to 18 hrs by CLSI method; type: functional; conditions: time 16-18 hrs
Staphylococcus aureus [3] = experiment: Antibacterial activity against methicillin-resistant Staphylococcus aureus clinical isolate MRSA-13 measured after 16 to 18 hrs by CLSI method; type: functional; conditions: time 16-18 hrs
Staphylococcus aureus [4] = experiment: Antibacterial activity against methicillin-resistant Staphylococcus aureus clinical isolate MRSA-14 measured after 16 to 18 hrs by CLSI method; type: functional; conditions: time 16-18 hrs
Staphylococcus aureus [5] = experiment: Antibacterial activity against methicillin-resistant Staphylococcus aureus clinical isolate MRSA-16 measured after 16 to 18 hrs by CLSI method; type: functional; conditions: time 16-18 hrs
Staphylococcus aureus [6] = experiment: Antibacterial activity against methicillin-resistant Staphylococcus aureus clinical isolate MRSA-17 measured after 16 to 18 hrs by CLSI method; type: functional; conditions: time 16-18 hrs
Staphylococcus aureus [7] = experiment: Antibacterial activity against methicillin-resistant Staphylococcus aureus clinical isolate MRSA-18 measured after 16 to 18 hrs by CLSI method; type: functional; conditions: time 16-18 hrs
Staphylococcus aureus [8] = experiment: Antibacterial activity against methicillin-resistant Staphylococcus aureus clinical isolate MRSA-20 measured after 16 to 18 hrs by CLSI method; type: functional; conditions: time 16-18 hrs
Staphylococcus aureus [9] = experiment: Antibacterial activity against methicillin-resistant Staphylococcus aureus clinical isolate MRSA-21 measured after 16 to 18 hrs by CLSI method; type: functional; conditions: time 16-18 hrs
Staphylococcus aureus [10] = experiment: Antibacterial activity against methicillin-resistant Staphylococcus aureus clinical isolate MRSA-22 measured after 16 to 18 hrs by CLSI method; type: functional; conditions: time 16-18 hrs
Staphylococcus aureus [11] = experiment: Antibacterial activity against methicillin-resistant Staphylococcus aureus clinical isolate MRSA-23 measured after 16 to 18 hrs by CLSI method; type: functional; conditions: time 16-18 hrs
Escherichia coli = experiment: Antibacterial activity against Escherichia coli ATCC25922 measured after 16 to 18 hrs by CLSI method; type: functional; conditions: time 16-18 hrs
[12] = Hemolytic activity in sheep erythrocytes incubated for 1 hr by absorbance based analysis; type: toxicity, cell-based, Ovis aries, Erythrocyte
[13] = Selectivity index, ratio of HC50 for hemolytic activity in sheep erythrocytes to MIC for antibacterial activity against Staphylococcus aureus ATCC 29213; type: toxicity, cell-based; conditions: read-out: Selectivity Index
Staphylococcus aureus [14] = experiment: Bactericidal activity against Staphylococcus aureus ATCC 29213 assessed as inhibition of bacterial growth at 8 times MIC measured within 0.5 to 1 hrs by time kill assay; type: functional, organism-based; conditions: time 0.5-1 hrs
Staphylococcus aureus [15] = experiment: Bactericidal activity against methicillin-resistant Staphylococcus aureus clinical isolate MRSA-16 assessed as inhibition of bacterial growth at 8 times MIC measured within 0.5 to 1 hrs by time kill assay; type: functional, organism-based; conditions: time 0.5-1 hrs
Staphylococcus aureus [16] = experiment: Antibacterial activity against methicillin-resistant Staphylococcus aureus infected in Kunming mouse skin infection model assessed as effect on skin abscesses in dorsal surface at 4 mg/kg,sc measured after 24 hrs; type: functional, organism-based
Staphylococcus aureus [17] = experiment: Antibacterial activity against methicillin-resistant Staphylococcus aureus infected in Kunming mouse skin infection model assessed as effect on skin abscesses at 4 mg/kg,sc measured after 24 hrs; type: functional, organism-based
Staphylococcus aureus [18] = experiment: Antibacterial activity against methicillin-resistant Staphylococcus aureus infected in Kunming mouse skin infection model assessed as reduction in inflammatory cells at 4 mg/kg,sc measured after 24 hrs; type: functional, organism-based
Staphylococcus aureus [19] = experiment: Antibacterial activity against methicillin-resistant Staphylococcus aureus infected in Kunming mouse skin infection model assessed as reduction in number of bacterial cells at 4 mg/kg,sc measured after 24 hrs; type: functional, organism-based
Staphylococcus aureus [20] = experiment: Antibacterial activity against methicillin-resistant Staphylococcus aureus infected in Kunming mouse skin infection model assessed as decrease in bacterial load at 4 mg/kg,sc measured after 24 hrs relative to control; type: functional; design: scale not given: the % may be the effect or the level left
Staphylococcus aureus [21] = experiment: Antibacterial activity against methicillin-resistant Staphylococcus aureus infected in Kunming mouse skin infection model assessed as decrease in bacterial load at 4 mg/kg,sc measured after 24 hrs; type: functional

Row | SMILES | MIC (Staphylococcus aureus [1]) [µg/mL] | MIC (Staphylococcus aureus [2]) [µg/mL] | MIC (Staphylococcus aureus [3]) [µg/mL] | MIC (Staphylococcus aureus [4]) [µg/mL] | MIC (Staphylococcus aureus [5]) [µg/mL] | MIC (Staphylococcus aureus [6]) [µg/mL] | MIC (Staphylococcus aureus [7]) [µg/mL] | MIC (Staphylococcus aureus [8]) [µg/mL] | MIC (Staphylococcus aureus [9]) [µg/mL] | MIC (Staphylococcus aureus [10]) [µg/mL] | MIC (Staphylococcus aureus [11]) [µg/mL] | MIC (Escherichia coli) [µg/mL] | HC50 at 1 h [12] [µg/mL] | selectivity ratio [13] | further results
1 | COc1cc(OCCCCCN2CCC(C)CC2)c(CC=C(C)C)c2c1C(=O)CC(c1ccc(OCCCCCN3CCC(C)CC3)cc1)O2 (stereo unspecified) | 8 (≈ 11.6 µM) | 4 (≈ 5.81 µM) | 8 (≈ 11.6 µM) | 8 (≈ 11.6 µM) | 4 (≈ 5.81 µM) | 8 (≈ 11.6 µM) | 8 (≈ 11.6 µM) | 8 (≈ 11.6 µM) | 4 (≈ 5.81 µM) | 8 (≈ 11.6 µM) | 8 (≈ 11.6 µM) | > 128 | > 1280 | > 160 | –
2 | CN[C@H](CC(C)C)C(=O)N[C@H]1C(=O)N[C@@H](CC(N)=O)C(=O)N[C@H]2C(=O)N[C@H]3C(=O)N[C@H](C(=O)N[C@H](C(=O)O)c4cc(O)cc(O)c4-c4cc3ccc4O)[C@H](O)c3ccc(c(Cl)c3)Oc3cc2cc(c3O[C@@H]2O[C@H](CO)[C@@H](O)[C@H](O)[C@H]2O[C@H]2C[C@](C)(N)[C@H](O)[C@H](C)O2)Oc2ccc(cc2Cl)[C@H]1O [VANCOMYCIN] | – | – | – | – | – | – | – | – | – | – | – | – | – | – | Activity (Staphylococcus aureus [14]): Active; Activity (Staphylococcus aureus [15]): Active; Activity (Staphylococcus aureus [16]): Active; Activity (Staphylococcus aureus [17]): Active; Activity (Staphylococcus aureus [18]): Active; Activity (Staphylococcus aureus [19]): Active; Activity (Staphylococcus aureus [20]): 97.67%; Activity (Staphylococcus aureus [21]): 1.6 log10CFU/g
3 | CCCC[N+](C)(CCCC)CCCCOc1ccc(C2CC(=O)c3c(OC)cc(OCCCC[N+](C)(CCCC)CCCC)c(CC=C(C)C)c3O2)cc1.[I-].[I-] (stereo unspecified) | 0.5 | 0.5 | 0.5 | 0.5 | 0.25 | 0.25 | 0.5 | 0.5 | 0.5 | 1 | 0.5 | 32 | > 1280 | > 2640 | –
4 | COc1cc(OCCCN2CCCC(C)C2)c(CC=C(C)C)c2c1C(=O)CC(c1ccc(OCCCN3CCCC(C)C3)cc1)O2 (stereo unspecified) | 16 (≈ 25.3 µM) | 32 (≈ 50.6 µM) | 16 (≈ 25.3 µM) | 16 (≈ 25.3 µM) | 16 (≈ 25.3 µM) | 8 (≈ 12.6 µM) | 16 (≈ 25.3 µM) | 16 (≈ 25.3 µM) | 32 (≈ 50.6 µM) | 16 (≈ 25.3 µM) | 32 (≈ 50.6 µM) | > 128 | > 1280 | > 80 | –
5 | COc1cc(OCCCCN2CCCCC2C)c(CC=C(C)C)c2c1C(=O)CC(c1ccc(OCCCCN3CCCCC3C)cc1)O2 (stereo unspecified) | 32 (≈ 48.4 µM) | 8 (≈ 12.1 µM) | 32 (≈ 48.4 µM) | 16 (≈ 24.2 µM) | 32 (≈ 48.4 µM) | 16 (≈ 24.2 µM) | 32 (≈ 48.4 µM) | 32 (≈ 48.4 µM) | 32 (≈ 48.4 µM) | 16 (≈ 24.2 µM) | 32 (≈ 48.4 µM) | > 128 | 275 | > 8.6 | –
6 | COc1cc(OCCCN2CCCCC2C)c(CC=C(C)C)c2c1C(=O)CC(c1ccc(OCCCN3CCCCC3C)cc1)O2 (stereo unspecified) | 32 (≈ 50.6 µM) | 32 (≈ 50.6 µM) | 32 (≈ 50.6 µM) | 32 (≈ 50.6 µM) | 16 (≈ 25.3 µM) | 32 (≈ 50.6 µM) | 32 (≈ 50.6 µM) | 32 (≈ 50.6 µM) | 32 (≈ 50.6 µM) | 16 (≈ 25.3 µM) | 32 (≈ 50.6 µM) | > 128 | > 1280 | > 40 | –
7 | COc1cc(OCCCCCN2CCCCC2)c(CC=C(C)C)c2c1C(=O)CC(c1ccc(OCCCCCN3CCCCC3)cc1)O2 (stereo unspecified) | 8 (≈ 12.1 µM) | 8 (≈ 12.1 µM) | 8 (≈ 12.1 µM) | 8 (≈ 12.1 µM) | 8 (≈ 12.1 µM) | 4 (≈ 6.05 µM) | 8 (≈ 12.1 µM) | 8 (≈ 12.1 µM) | 8 (≈ 12.1 µM) | 8 (≈ 12.1 µM) | 8 (≈ 12.1 µM) | > 128 | 151 | 18.9 | –
8 | CCCCN(CCCC)CCCOc1ccc(C2CC(=O)c3c(OC)cc(OCCCN(CCCC)CCCC)c(CC=C(C)C)c3O2)cc1 (stereo unspecified) | 8 (≈ 11.5 µM) | 8 (≈ 11.5 µM) | 8 (≈ 11.5 µM) | 4 (≈ 5.77 µM) | 4 (≈ 5.77 µM) | 4 (≈ 5.77 µM) | 8 (≈ 11.5 µM) | 8 (≈ 11.5 µM) | 8 (≈ 11.5 µM) | 4 (≈ 5.77 µM) | 8 (≈ 11.5 µM) | > 128 | 810 | 101 | –
